# “And” between values parts separate entries of the source, which are not always exact repeats. Identical values can stand only once.
# Species on record: Rattus norvegicus
# Type: toxicity, organism-based, Sprague-Dawley
# Details: in vivo, sc, 24 h, route mini-PUMP - SUBCUTANEOUS, time 1 day, vehicle 100 % SALINE; for ALANINE AMINOTRANSFERASE / ALBUMIN / ALKALINE PHOSPHATASE / ASPARTATE AMINOTRANSFERASE / BLOOD UREA NITROGEN / CARBON DIOXIDE / CHLORIDE / CHOLESTEROL / CREATININE / GLUCOSE / LACTATE DEHYDROGENASE / LIPASE / PHOSPHORUS / POTASSIUM / SODIUM / TOTAL BILIRUBIN / TOTAL PROTEIN / URIC ACID / CREATINE PHOSPHOKINASE: tissue Plasma
# [1] = 0 mg/kg, vehicle control, tissue Blood, dose level Control
# [2] = 0 mg/kg, vehicle control, dose level Control
# [3] = […], tissue Blood, dose 0.065 mg/Kg, dose level High
# [4] = […], dose 0.065 mg/Kg, dose level High
# [5] = 0.5 mg/kg, tissue Blood, dose level High
# [6] = […], tissue Blood, dose 0.72 mg/Kg, dose level High
# [7] = […], dose 0.72 mg/Kg, dose level High
# Description: DrugMatrix - Regimen: Single
smiles,measurement,setting,value
C[C@]12CCC(=O)C=C1CC[C@@H]1[C@@H]2[C@@H](O)C[C@]2(C=O)[C@@H](C(=O)CO)CC[C@@H]12 [ALDOSTERONE],ABSOLUTE EOSINOPHIL,[1],26.17 CELLS/uL
same,ABSOLUTE LYMPHOCYTE,[1],10985.83 CELLS/uL
same,ABSOLUTE MONOCYTE,[1],234.5 CELLS/uL
same,ABSOLUTE SEGMENTED NEUTROPHIL,[1],1753.5 CELLS/uL
same,BASOPHIL,[1],0%
same,EOSINOPHIL,[1],0.17%
same,ERYTHROCYTE COUNT,[1],5.64 x10E6/uL
same,HEMATOCRIT,[1],34.52%
same,HEMOGLOBIN,[1],12.68 G/DL
same,LEUKOCYTE COUNT,[1],13 x10E3/uL
same,LYMPHOCYTE,[1],84.5%
same,MEAN CORPUSCULAR HEMOGLOBIN,[1],22.5 pg
same,MEAN CORPUSCULAR HEMOGLOBIN CONCENTRATION,[1],36.78 G/DL
same,MEAN CORPUSCULAR VOLUME,[1],61.18 fL
same,MONOCYTE,[1],1.83%
same,NEUTROPHIL,[1],13.5%
same,NUCLEATED RED BLOOD CELLS,[1],0.17 /100WBC
same,PLATELET COUNT,[1],679.17 x10E3/uL
same,ALANINE AMINOTRANSFERASE,[2],42.67 u/L
same,ALBUMIN,[2],3.77 G/DL
same,ALKALINE PHOSPHATASE,[2],291.17 u/L
same,ASPARTATE AMINOTRANSFERASE,[2],74.5 u/L
same,BLOOD UREA NITROGEN,[2],15.33 mg/dL
same,CARBON DIOXIDE,[2],30 mmol/L
same,CHLORIDE,[2],100.83 MEQ/L
same,CHOLESTEROL,[2],65.33 mg/dL
same,CREATININE,[2],0.15 mg/dL
same,GLUCOSE,[2],179.83 mg/dL
same,LACTATE DEHYDROGENASE,[2],162.67 u/L
same,LIPASE,[2],8.5 u/L
same,PHOSPHORUS,[2],12.2 mg/dL
same,POTASSIUM,[2],5.73 MEQ/L
same,SODIUM,[2],144.7 MEQ/L
same,TOTAL BILIRUBIN,[2],0.15 mg/dL
same,TOTAL PROTEIN,[2],5.87 G/DL
same,URIC ACID,[2],1.93 mg/dL
same,ABSOLUTE EOSINOPHIL,[3],35 CELLS/uL
same,ABSOLUTE LYMPHOCYTE,[3],9989.33 CELLS/uL
same,ABSOLUTE MONOCYTE,[3],255.33 CELLS/uL
same,ABSOLUTE SEGMENTED NEUTROPHIL,[3],2453.67 CELLS/uL
same,BASOPHIL,[3],0%
same,EOSINOPHIL,[3],0.33%
same,ERYTHROCYTE COUNT,[3],5.74 x10E6/uL
same,HEMATOCRIT,[3],34.13%
same,HEMOGLOBIN,[3],12.57 G/DL
same,LEUKOCYTE COUNT,[3],12.73 x10E3/uL
same,LYMPHOCYTE,[3],78.33%
same,MEAN CORPUSCULAR HEMOGLOBIN,[3],21.87 pg
same,MEAN CORPUSCULAR HEMOGLOBIN CONCENTRATION,[3],36.77 G/DL
same,MEAN CORPUSCULAR VOLUME,[3],59.43 fL
same,MONOCYTE,[3],2.33%
same,NEUTROPHIL,[3],19%
same,NUCLEATED RED BLOOD CELLS,[3],0.33 /100WBC
same,PLATELET COUNT,[3],980 x10E3/uL
same,ALANINE AMINOTRANSFERASE,[4],37.33 u/L
same,ALBUMIN,[4],3.87 G/DL
same,ALKALINE PHOSPHATASE,[4],321.67 u/L
same,ASPARTATE AMINOTRANSFERASE,[4],76 u/L
same,BLOOD UREA NITROGEN,[4],11.67 mg/dL
same,CARBON DIOXIDE,[4],27.67 mmol/L
same,CHLORIDE,[4],101.33 MEQ/L
same,CHOLESTEROL,[4],65.33 mg/dL
same,CREATININE,[4],0.14 mg/dL
same,GLUCOSE,[4],206.67 mg/dL
same,LACTATE DEHYDROGENASE,[4],145.67 u/L
same,LIPASE,[4],9 u/L
same,PHOSPHORUS,[4],13.27 mg/dL
same,POTASSIUM,[4],5.08 MEQ/L
same,SODIUM,[4],146.53 MEQ/L
same,TOTAL BILIRUBIN,[4],0.17 mg/dL
same,TOTAL PROTEIN,[4],5.9 G/DL
same,URIC ACID,[4],2.27 mg/dL
CC[C@H](C)[C@H](NC(=O)[C@H](Cc1ccc(O)cc1)NC(=O)[C@@H](NC(=O)[C@H](CCCNC(=N)N)NC(=O)[C@@H](N)CC(=O)O)C(C)C)C(=O)N[C@@H](Cc1cnc[nH]1)C(=O)N1CCC[C@H]1C(=O)N[C@@H](Cc1ccccc1)C(=O)O [ANGIOTENSIN II],ABSOLUTE SEGMENTED NEUTROPHIL,[1],1753.5 CELLS/uL
same,BASOPHIL,[1],0.4% and 0%
same,EOSINOPHIL,[1],0.3% and 0.17%
same,ERYTHROCYTE COUNT,[1],6.25 x10E6/uL and 5.64 x10E6/uL
same,HEMATOCRIT,[1],41.8% and 34.52%
same,HEMOGLOBIN,[1],13.33 G/DL and 12.68 G/DL
same,LEUKOCYTE COUNT,[1],11.55 x10E3/uL and 13 x10E3/uL
same,MEAN CORPUSCULAR HEMOGLOBIN,[1],21.37 pg and 22.5 pg
same,MEAN CORPUSCULAR HEMOGLOBIN CONCENTRATION,[1],31.93 G/DL and 36.78 G/DL
same,MEAN CORPUSCULAR VOLUME,[1],66.93 fL and 61.18 fL
same,MONOCYTE,[1],2.4% and 1.83%
same,NEUTROPHIL,[1],23.4% and 13.5%
same,NUCLEATED RED BLOOD CELLS,[1],0.17 /100WBC
same,PLATELET COUNT,[1],1265.33 x10E3/uL and 679.17 x10E3/uL
same,ALBUMIN,[2],3.63 G/DL and 3.77 G/DL
same,ALKALINE PHOSPHATASE,[2],385.33 u/L and 291.17 u/L
same,ASPARTATE AMINOTRANSFERASE,[2],79.33 u/L and 74.5 u/L
same,BLOOD UREA NITROGEN,[2],13.33 mg/dL and 15.33 mg/dL
same,CARBON DIOXIDE,[2],40.67 mmol/L and 30 mmol/L
same,CHOLESTEROL,[2],86.33 mg/dL and 65.33 mg/dL
same,CREATINE PHOSPHOKINASE,[2],190.33 u/L
same,CREATININE,[2],0.4 mg/dL and 0.15 mg/dL
same,GLUCOSE,[2],165.67 mg/dL and 179.83 mg/dL
same,LACTATE DEHYDROGENASE,[2],103.33 u/L and 162.67 u/L
same,PHOSPHORUS,[2],11.7 mg/dL and 12.2 mg/dL
same,POTASSIUM,[2],5.5 MEQ/L and 5.73 MEQ/L
same,SODIUM,[2],145 MEQ/L and 144.7 MEQ/L
same,TOTAL BILIRUBIN,[2],0.27 mg/dL and 0.15 mg/dL
same,URIC ACID,[2],1 mg/dL and 1.93 mg/dL
same,ABSOLUTE BASOPHIL,[5],13.3 cells/µL
same,ABSOLUTE EOSINOPHIL,[5],46.7 cells/µL
same,ABSOLUTE LYMPHOCYTE,[5],5400 cells/µL
same,ABSOLUTE MONOCYTE,[5],230 cells/µL
same,BASOPHIL,[5],0.13%
same,EOSINOPHIL,[5],0.6%
same,ERYTHROCYTE COUNT,[5],6.26 x10E6/uL
same,HEMATOCRIT,[5],42.23%
same,HEMOGLOBIN,[5],13.53 G/DL
same,LEUKOCYTE COUNT,[5],7.88 x10E3/uL
same,MEAN CORPUSCULAR HEMOGLOBIN,[5],21.63 pg
same,MEAN CORPUSCULAR HEMOGLOBIN CONCENTRATION,[5],32.03 G/DL
same,MEAN CORPUSCULAR VOLUME,[5],67.47 fL
same,MONOCYTE,[5],2.8%
same,NEUTROPHIL,[5],26.93%
same,PLATELET COUNT,[5],1308.33 x10E3/uL
same,ALBUMIN,"0.5 mg/kg, dose level High",3.93 G/DL
same,ALKALINE PHOSPHATASE,"0.5 mg/kg, dose level High",341.33 u/L
same,ASPARTATE AMINOTRANSFERASE,"0.5 mg/kg, dose level High",74 u/L
same,BLOOD UREA NITROGEN,"0.5 mg/kg, dose level High",14 mg/dL
same,CARBON DIOXIDE,"0.5 mg/kg, dose level High",42.67 mmol/L
same,CHOLESTEROL,"0.5 mg/kg, dose level High",106.33 mg/dL
same,CREATINE PHOSPHOKINASE,"0.5 mg/kg, dose level High",299.33 u/L
same,CREATININE,"0.5 mg/kg, dose level High",0.5 mg/dL
same,GLUCOSE,"0.5 mg/kg, dose level High",169.33 mg/dL
same,LACTATE DEHYDROGENASE,"0.5 mg/kg, dose level High",65.33 u/L
same,PHOSPHORUS,"0.5 mg/kg, dose level High",11.73 mg/dL
same,POTASSIUM,"0.5 mg/kg, dose level High",5.2 MEQ/L
same,SODIUM,"0.5 mg/kg, dose level High",146.33 MEQ/L
same,TOTAL BILIRUBIN,"0.5 mg/kg, dose level High",0.2 mg/dL
same,URIC ACID,"0.5 mg/kg, dose level High",0.93 mg/dL
same,ABSOLUTE EOSINOPHIL,[6],30.33 CELLS/uL
same,ABSOLUTE LYMPHOCYTE,[6],10495 CELLS/uL
same,ABSOLUTE MONOCYTE,[6],212 CELLS/uL
same,ABSOLUTE SEGMENTED NEUTROPHIL,[6],2262.67 CELLS/uL
same,BASOPHIL,[6],0%
same,EOSINOPHIL,[6],0.33%
same,ERYTHROCYTE COUNT,[6],6.56 x10E6/uL
same,HEMATOCRIT,[6],38.97%
same,HEMOGLOBIN,[6],14.37 G/DL
same,LEUKOCYTE COUNT,[6],13 x10E3/uL
same,MEAN CORPUSCULAR HEMOGLOBIN,[6],21.9 pg
same,MEAN CORPUSCULAR HEMOGLOBIN CONCENTRATION,[6],36.87 G/DL
same,MEAN CORPUSCULAR VOLUME,[6],59.37 fL
same,MONOCYTE,[6],1.67%
same,NEUTROPHIL,[6],17.67%
same,NUCLEATED RED BLOOD CELLS,[6],0.33 /100WBC
same,PLATELET COUNT,[6],1167.67 x10E3/uL
same,ALBUMIN,[7],4 G/DL
same,ALKALINE PHOSPHATASE,[7],462 u/L
same,ASPARTATE AMINOTRANSFERASE,[7],98.67 u/L
same,BLOOD UREA NITROGEN,[7],19 mg/dL
same,CARBON DIOXIDE,[7],32 mmol/L
same,CHOLESTEROL,[7],87 mg/dL
same,CREATININE,[7],0.14 mg/dL
same,GLUCOSE,[7],171 mg/dL
same,LACTATE DEHYDROGENASE,[7],143.33 u/L
same,PHOSPHORUS,[7],13.13 mg/dL
same,POTASSIUM,[7],6.48 MEQ/L
same,SODIUM,[7],141.6 MEQ/L
same,TOTAL BILIRUBIN,[7],0.2 mg/dL
same,URIC ACID,[7],2.37 mg/dL

# Reference: ChEMBL document CHEMBL3885881, “DrugMatrix”
